These results are taken from ChEMBL document CHEMBL1201862, “PubChem BioAssay data set” (2004).

Among the test systems are HOP-18; RXF 631; DLD-1; KM-20L2; M19-MEL; DMS-273; SNB-78; LXFL 529; DMS-114.
Common to all, as to assay: NCI anticancer screen, dose series, 48 h

The structures appear in SMILES notation.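 How tested: cells in 96-well plates exposed to compound for 48 hours at five concentrations. GI50 = concentration required for 50% inhibition of growth.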 The source made the active and inactive calls. No stated cut-off is given here; in the data, active = GI50 up to about 1.1 µM and inactive = higher. Bounds are passed on as bounds.

With `O=c1c2cc(Br)ccc2[nH]c(=S)n1-c1ccccc1`, the GI50 with HOP-18, in the experiment with RXF 631, in the experiment on DLD-1, in the experiment with KM-20L2, with M19-MEL and with DMS-273 was > 100 µM (inactive) throughout. Further, in the experiment with SNB-78, the GI50 is > 100 µM (inactive).
In the case of `Nc1ccc2c(SCc3ccc([N+](=O)[O-])cc3)c3ccccc3nc2c1`, the GI50 was 6.08 µM (inactive) with LXFL 529; 13.5 µM (inactive) in the experiment on HOP-18; 2.39 µM (inactive) with DLD-1; 16.5 µM (inactive) with KM-20L2; 13.2 µM (inactive) in the experiment with M19-MEL; 19.9 µM (inactive) in the experiment on DMS-273. Besides, the GI50 was 15 µM (inactive) in the experiment on DMS-114 and 21.9 µM (inactive) in the experiment with SNB-78.
Take `COC1/C=C\C=C(/C)C(=O)Nc2cc3nc4ccc(Br)cc4oc-3c(c2=O)CC(C)CC(OC)C(O)C(C)/C=C(\C)C1OC(N)=O` (configuration not stated): the GI50 was < 0.0147 µM (active) with LXFL 529; 0.01 µM (active) in the experiment with HOP-18; 0.0447 µM (active) in the experiment with DLD-1; < 0.0181 µM (active) in the experiment on KM-20L2; 0.0383 µM (active) in the experiment with M19-MEL; < 0.0216 µM (active) in the experiment on DMS-273. In addition, the GI50 was 0.0604 µM (active) in the experiment on DMS-114 and 0.998 µM (active) in the experiment with SNB-78.
On to `CN(CC(=O)O)S(=O)(=O)c1ccc2ccccc2c1`, for which the GI50 in the experiment with LXFL 529, in the experiment with HOP-18, in the experiment with RXF 631, in the experiment on DLD-1, in the experiment with KM-20L2 and in the experiment on M19-MEL was > 100 µM (inactive) in each case. The GI50 with DMS-273 is > 100 µM (inactive).
As to `CCN(CC)C(=S)SC1CCOP(=O)(N(CCCl)CCCl)N1C` (configuration not stated), the GI50 in the experiment on LXFL 529 is 0.0372 µM (active); with HOP-18 it was > 100 µM (inactive); in the experiment on DLD-1, 0.126 µM (active); in the experiment on KM-20L2, 38.7 µM (inactive); in the experiment with M19-MEL, 0.212 µM (active); with DMS-273 it was 0.214 µM (active). For the same compound, the GI50 in the experiment on DMS-114 is 0.19 µM (active); in the experiment on SNB-78 it was 49.2 µM (inactive).
As to `CC(Oc1ccc2c(-c3ccc(Cl)cc3)cc(=O)oc2c1)C(=O)O` (configuration not stated), the GI50 in the experiment with LXFL 529, in the experiment on HOP-18, with RXF 631, with DLD-1, in the experiment on KM-20L2 and with SNB-78 was > 100 µM (inactive) in each case.
Consider `Cc1ccc(NC(=O)C2C(=O)N(c3ccc(C)cc3)C(=O)/C2=N\NC(N)=S)cc1` (configuration not stated), for which the GI50 in the experiment with LXFL 529, in the experiment with HOP-18, in the experiment with KM-20L2, with M19-MEL, with DMS-273 and in the experiment with DMS-114 was > 100 µM (inactive) in each case. In the experiment on SNB-78, the GI50 was > 100 µM (inactive).
With `O=c1n(-c2ccccc2)c(=O)n2n1C1C=CC2C2C(C1)C2(Cl)Cl` (configuration not stated), the GI50 in the experiment on LXFL 529, in the experiment with RXF 631, with DLD-1, with KM-20L2, with M19-MEL and in the experiment with DMS-273 was > 100 µM (inactive) throughout. For the same compound, the GI50 with DMS-114 and in the experiment on SNB-78 was > 100 µM (inactive) each time.
`CCN(CC)CCNc1ccc2ncn3c4cc(O)ccc4c(=O)c1c23`: the GI50 with LXFL 529 is 2.56 µM (inactive); in the experiment on RXF 631, 2.1 µM (inactive); in the experiment on DLD-1 it was 3.76 µM (inactive); in the experiment with KM-20L2, 3.7 µM (inactive); in the experiment with M19-MEL, 3.94 µM (inactive); with DMS-273, 2.77 µM (inactive). Besides, the values for the GI50 in the experiment with DMS-114 and with SNB-78 were 4.29 µM (inactive) and 5.35 µM (inactive), respectively.
Regarding `Cc1cc(NC(=O)NC(=O)c2ccccc2NC(=O)C(C)N)ccc1Oc1ncc(Br)cn1` (configuration not stated), the GI50 was 0.396 µM (active) in the experiment with LXFL 529; 0.331 µM (active) in the experiment with DLD-1; 0.0946 µM (active) with KM-20L2; 0.292 µM (active) in the experiment on M19-MEL; 0.046 µM (active) in the experiment with DMS-273; 1.13 µM (inactive) with DMS-114. Besides, the GI50 in the experiment with SNB-78 was 0.146 µM (active).
Turning to `O=C(/C=C/c1ccccc1)Oc1cccc2cccnc12`, the GI50 in the experiment on LXFL 529 was 4.06 µM (inactive); in the experiment with HOP-18, 25.8 µM (inactive); in the experiment on DLD-1 it was 4.37 µM (inactive); in the experiment with KM-20L2, 2.2 µM (inactive); with M19-MEL, 13.2 µM (inactive); in the experiment on DMS-273, 23 µM (inactive). The GI50 in the experiment on SNB-78 was 21 µM (inactive).
In the case of `C=C(C)CC(C)(c1cc2ccccc2n1C)N1CCOCC1` (configuration not stated), the GI50 in the experiment on LXFL 529 is 53.7 µM (inactive); with HOP-18 it was > 100 µM (inactive); with RXF 631, 42.4 µM (inactive); with DLD-1, 60.5 µM (inactive); in the experiment on KM-20L2, > 100 µM (inactive); in the experiment with M19-MEL it was > 100 µM (inactive). In addition, in the experiment with DMS-273, the GI50 was 61 µM (inactive).
On to `CN1C(=O)CC2(C)c3cc(O)cc(Br)c3N(C)C12` (configuration not stated), for which the GI50 is > 100 µM (inactive) in the experiment on LXFL 529; 31.6 µM (inactive) in the experiment on HOP-18; > 100 µM (inactive) in the experiment with KM-20L2; > 100 µM (inactive) in the experiment on M19-MEL; > 100 µM (inactive) in the experiment with DMS-114; > 100 µM (inactive) in the experiment with SNB-78.
For the compound `COC(=O)[C@@]12OC[C@]34[C@H]([C@@H](O)[C@@H]1O)[C@@]1(C)CC(=O)C(O)=C(C)[C@@H]1C[C@H]3OC(=O)[C@H](OC(=O)/C=C(\C)C(C)C)[C@@H]24` [BRUCEANTIN], the GI50 is 3.5e-05 µM (active) in the experiment on LXFL 529; 0.0265 µM (active) in the experiment on HOP-18; 0.000314 µM (active) with RXF 631; 0.02 µM (active) in the experiment on DLD-1; 0.02 µM (active) in the experiment with KM-20L2; 0.02 µM (active) in the experiment with M19-MEL. In addition, in the experiment on SNB-78, the GI50 is 0.02 µM (active).
For the compound `CC(C)(C)c1cc(C(O)(C(F)(F)F)C(F)(F)F)c2c(c1)C(C(F)(F)F)(C(F)(F)F)OC(C)(C(C)(C)C)N2` (configuration not stated), the GI50 in the experiment on LXFL 529 is 2.96 µM (inactive); with HOP-18 it was 2.76 µM (inactive); in the experiment with DLD-1, 2.85 µM (inactive); in the experiment with KM-20L2, 3.03 µM (inactive); with M19-MEL it was 3.05 µM (inactive); with DMS-273, 3.06 µM (inactive). For the same compound, the GI50 in the experiment with DMS-114 was 2.74 µM (inactive); in the experiment with SNB-78 it was 5.87 µM (inactive).
`C/C(=C\C(C[C@](C)(O)C(O)CCC#C[Si](C)(C)C)S(=O)(=O)c1ccccc1)CC/C=C/CO[Si](C)(C)C(C)(C)C` (some centres not stated): the GI50 was 9.66 µM (inactive) in the experiment with RXF 631; 23.6 µM (inactive) with DLD-1; 8.61 µM (inactive) in the experiment with KM-20L2; 17.2 µM (inactive) in the experiment on M19-MEL; 15.7 µM (inactive) in the experiment with DMS-273; 15.2 µM (inactive) with DMS-114. In the experiment on SNB-78, the GI50 was 16.8 µM (inactive).
Regarding `C#C[C@]1(O)CCC2C3CCc4cc(Oc5nc(F)nc(-n6c(C)nc7cc8ccccc8cc76)n5)ccc4C3CCC21C` (some centres not stated), the GI50 is 41.1 µM (inactive) with LXFL 529; 30.6 µM (inactive) in the experiment with HOP-18; 53.3 µM (inactive) in the experiment with DLD-1; 32.4 µM (inactive) in the experiment on KM-20L2; 37.1 µM (inactive) in the experiment with M19-MEL; 20.8 µM (inactive) with DMS-273. Also, the GI50 in the experiment on DMS-114 was 20.6 µM (inactive); in the experiment on SNB-78, 75.3 µM (inactive).
Turning to `CC12CO[C@@](C)(CC(S(=O)(=O)c3ccccc3)C1)O2` (some centres not stated), the GI50 in the experiment on LXFL 529, in the experiment with HOP-18, with DLD-1, with KM-20L2, in the experiment on M19-MEL and with DMS-273 was > 100 µM (inactive) in each case. The GI50 in the experiment on DMS-114 and in the experiment on SNB-78 was > 100 µM (inactive) throughout.
Take `CNS(=O)(=O)NN(C)S(=O)(=O)c1ccccc1`: the GI50 in the experiment with LXFL 529, in the experiment with DLD-1, in the experiment on KM-20L2, in the experiment with M19-MEL, in the experiment with DMS-273 and in the experiment on DMS-114 was > 100 µM (inactive) throughout.
For the compound `Cc1cc(C)c(-c2noc(-c3ccc(Cl)cc3)c2C2=NCCCN2)c(C)c1`, the GI50 in the experiment with LXFL 529 is 32.2 µM (inactive); in the experiment with HOP-18, 27.9 µM (inactive); in the experiment on RXF 631, 25.1 µM (inactive); with DLD-1, 35.8 µM (inactive); with KM-20L2 it was 21.9 µM (inactive); with M19-MEL, 36.1 µM (inactive). The GI50 with SNB-78 was 14.8 µM (inactive).
On to `CCOC(=O)C(=O)Nc1ccc(Cl)cc1C`, for which the GI50 in the experiment on LXFL 529, with HOP-18, in the experiment with DLD-1, in the experiment on KM-20L2, in the experiment on M19-MEL and in the experiment on DMS-273 was > 100 µM (inactive) in each case. Further, the GI50 in the experiment with DMS-114 and in the experiment on SNB-78 was > 100 µM (inactive) throughout.
Regarding `CC1=C(C(=O)Nc2ccccc2)C(c2ccccc2)C(C(=O)Nc2ccccc2)=C(C)N1`, the GI50 in the experiment on LXFL 529 is 22.1 µM (inactive); with HOP-18, > 100 µM (inactive); in the experiment with DLD-1, 52.7 µM (inactive); in the experiment on KM-20L2, 25.2 µM (inactive); in the experiment on M19-MEL, 28.9 µM (inactive); with DMS-273 it was 47.4 µM (inactive). The GI50 in the experiment on DMS-114 was 19.2 µM (inactive); in the experiment on SNB-78, > 100 µM (inactive).
As for `O=C(O)COc1ccc(C(=O)/C(SS/C(C(=O)c2ccc(OCC(=O)O)c(Cl)c2Cl)=C2\C=C(c3ccc(F)cc3)SS2)=C2/C=C(c3ccc(F)cc3)SS2)c(Cl)c1Cl`, the GI50 in the experiment on LXFL 529 was 3.29 µM (inactive); with HOP-18, 14.7 µM (inactive); in the experiment on DLD-1, 11.2 µM (inactive); with KM-20L2, 30 µM (inactive); in the experiment with M19-MEL, 13.2 µM (inactive); in the experiment on DMS-273, 13.6 µM (inactive). Besides, the GI50 was 3.28 µM (inactive) in the experiment with DMS-114 and 6.08 µM (inactive) in the experiment on SNB-78.
Turning to `C=C1C(=O)C23C(CC(OC(C)=O)C1[C@@H]2OC(C)=O)C1(C)C(OC(C)=O)CCC(C)(C)C1C[C@@H]3OC(C)=O` (some centres not stated), the GI50 in the experiment on LXFL 529 is 1.35 µM (inactive); in the experiment on KM-20L2 it was 1.72 µM (inactive); with M19-MEL it was 1.75 µM (inactive); in the experiment on DMS-273 it was 1.68 µM (inactive); with DMS-114 it was 1.14 µM (inactive); with SNB-78, 1.53 µM (inactive).
As to `O=C1CCCCCCC2=C1C(Sc1ccccc1)CC2` (configuration not stated), the GI50 with LXFL 529 was 35.4 µM (inactive); in the experiment with HOP-18, > 100 µM (inactive); with KM-20L2, 41.6 µM (inactive); in the experiment on M19-MEL, 50.2 µM (inactive); in the experiment with DMS-273, 26.2 µM (inactive); in the experiment with DMS-114 it was 23.7 µM (inactive). The GI50 in the experiment with SNB-78 is > 100 µM (inactive).
